Measurements taken from patent US20220380937A1, “IDENTIFICATION OF SPLICING-DERIVED ANTIGENS FOR TREATING CANCER” (THE REGENTS OF THE UNIVERSITY OF CALIFORNIA, priority 2019, published 2022).

Test system: CD3+CD8+ T cells
Assay: MHC class I dextramer-based T-cell recognition assay (flow cytometry of PBMCs/TILs with pMHC complexes)
Parameters: species or system human
Details: for tested healthy donors whose T cells recognized the epitope: three HLA-matched healthy donors tested, PBMCs
Method: Assays to determine immunogenicity and/or TCR binding can be performed. One such as is the dextramer flow cytometery assay. Generally, custom-made HLA-matched MHC Class I dextramer:peptide (pMHC) complexes are developed or purchased (Immudex, Copenhagen, Denmark). T cells from peripheral blood mononuclear cells (PBMCs) or tumor-infiltrating lymphocytes (TILs) are incubated the pMHC complexes and stained, which are then run through a flow cytometer to determine if the peptide is capable of binding a TCR of a T cell.
Finally, the inventors sought to validate the immunogenicity and T-cell recognition of IRIS-identified candidate TCR targets using an MHC class I dextramer-based assay (12,24). The inventors focused on predicted AS-derived tumor epitopes with strong putative HLA-binding affinity to common HLA types found in at least five of the 22 patients. The inventors selected seven AS-derived tumor-associated epitopes (five HLA-A02:01 and two HLA-A03:01) for dextramer-based T-cell recognition testing (Table 4). […] The inventors obtained customized HLA-matched, fluorescently labeled MEW class I dextramer:peptide (pMHC) complexes for each candidate epitope. The inventors conducted flow cytometry to detect CD8^+ T-cell binding with the pMHC complexes using available peripheral blood mononuclear cells (PBMCs) and/or ex vivo-expanded tumor-infiltrating lymphocytes (TILs). Based on the binding of each AS-derived tumor epitope to a patient's CD3^+CD8^+ T cells, the inventors classified epitope reactivity as ‘positive’ (binding>0.1% of cells), ‘marginal’ (binding 0.01-0.1% of cells), or ‘negative’ (binding<0.01% of cells). […] The inventors analyzed samples from two HLA-A02:01 and four HLA-A03:01 patients, as well as samples from three HLA-A02:01 and three HLA-A03:01 healthy donors (Table 5, Supplementary Data).
Dextramer flow-cytometric analysis of PBMCs and TILs. For each AS-derived peptide selected for validation, custom-made HLA-matched MHC Class I dextramer:peptide (pMHC) complexes were purchased from Immudex (Copenhagen, Denmark). Immudex also provided pMHC complexes for common cytomegalovirus (CMV) epitopes (cat. nos. WB2132 and WC2197) and for a nonhuman epitope (NI3233) as a negative control. Each pMHC complex was purchased with two separate tags for APC or PE fluorescence labeling, to increase specificity to targeted T cells with dual labeling.
To facilitate proper gating of CD8^+ T cells from PBMC and TIL populations, the following panel of antibodies (from BioLegend) was set up: CD3 BV605 (cat. no. 300460), CD8 FITC (cat. no. 344704), CD4 BV421 (cat. no. 317434), CD19 BV421 (cat. no. 302234), CD56 BV421 (cat. no. 362552), and CD14 BV421 (cat. no. 301828). For single-color compensation controls, OneComp eBeads were used (Thermo Fisher Scientific, cat. no. 01-1111-41).
For each set of pMHC complexes, at least 3×10^6 cells were stained according to manufacturer's guidelines. Briefly, cells were thawed in a 37° C. water bath and washed with RPMI and D-PBS (Fisher Scientific, cat. no. MT21031CV) before staining for cell viability with the Zombie Violet Viability Kit (BioLegend, cat. no. 423113). Next, the appropriate amount of each pMHC complex in a staining buffer of D-PBS with 5% fetal bovine serum (Fisher Scientific, cat. no. MT35016CV) was added to each sample. After 10 min, the aforementioned antibody cocktail was added. After a 30-min incubation period, cells were washed twice in the same staining buffer. All samples were tested in a BD LSRII flow cytometer, and data were analyzed with FlowJo (Treestar). For gating, the lymphocyte population was first selected using forward and side scatter, and then the BV421-negative population was gated out (i.e. excluding dead cells and the CD14, CD19, CD56, and CD4 populations) before selecting the CD3^+CD8^+population. […]

[1] = patient LB2867, ex vivo-expanded TILs

Sequence	recognition by patient T cells (GBM patients, PBMCs and/or ex vivo-expanded TILs)	tested patients whose T cells recognized the epitope (four HLA-A03:01 GBM patients tested, PBMCs and/or TILs, at least marginal reactivity = recognized)	epitope-reactive T cells, % of T cells in PBMCs (patient LB2867, PBMCs) [%]	epitope reactivity (recognition) in expanded TIL population [1]	epitope-reactive T cells, % of T cells in TILs [1] [%]	tested healthy donors whose T cells recognized the epitope	reactive cells, % of CD3+CD8+ T cells (the one recognizing healthy donor of three tested) [%]
KIGRLVTRK (listed as Homo sapiens)	recognized	all four tested patients	0.03	positive (‘positive’ (binding>0.1% of cells))	1.69	one of the three	–
YAIVWVNGV (listed as Homo sapiens)	–	–	–	–	–	only one healthy donor	0.013
